This passage reports MIC results from patent publication US11999739B2, “Antimicrobials methods of making and using the same” (BIOVERSYS AG, priority 2016, dated 2024).

For orientation: MIC means the least concentration at which growth counts as inhibited.

SMILES strings stand for the structures.

The test system of assay [1] is Escherichia coli strain ATCC25922. The assay is described as follows: Standard microdilution MIC assay, E. coli. The class given is cell-based. As to the method:
(§1) The in vitro activity of the compounds of the present disclosure can be determined. Antimicrobial testing is typically performed to determine the minimum inhibitory concentration (MIC). Minimum inhibitory concentrations (MICs) are determined by the microdilution method in a final volume of 100 μl according to protocols outlined by The Clinical and Laboratory Standards Institute (CLSI). Performance standards for reference strains are assessed within the same experimental design to maintain quality control. See, for example, Clinical Laboratory Standards Institute: Methods for dilution antimicrobial susceptibility tests for bacteria that grow aerobically M7-A8. Approved Standard-Eighth Edition. Wayne, PA: CLSI; December 2008; and Clinical Laboratory Standards Institute: Performance Standards for Antimicrobial Susceptibility Testing M100-S20; Approved Standard-Twentieth Edition. Wayne, PA: CLSI; June 2010.
(§2) The compounds of the present disclosure were tested for antimicrobial activity. The Compounds 1-293 were run against Escherichia coli (E co/i) strain ATCC25922 and against Staphylococcus aureus (S. aureus) 11540 strain using a standard microdilution assay to determine minimum inhibitory concentrations (MICs). […] It will be recognized by one skilled in the art that the compounds can be assessed against other bacterial organisms and that the presentation of data for activity against Escherichia coli and Staphylococcus aureus are illustrative and in no way is intended to limit the scope of the present disclosure. The compounds of the present disclosure can be assayed against a range of other microorganisms depending upon the performance activity desired to be gathered. Furthermore, the “+” and “−” representation and the selection of a cutoff value of 16 micrograms/mL is also illustrative and in no way is intended to limit the scope of the present disclosure.

Assay [2] deals with Staphylococcus aureus (S. aureus) 11540 strain. In words: Standard microdilution MIC assay, S. aureus. The class given is cell-based. As to the method: as §1, §2

Consider `CSc1cc(-n2cc3cc(-c4cc(CCC[C@H](C)N)cc(Cl)c4F)[nH]c3nc2=O)cc(F)c1[C@@H]1CCC[C@@H](CCNC(C)=N)N1` [Compound 240], for which the MIC in assay [1] and in assay [2] was at most 16 µg/mL each time.
With `C=C[C@@H](CCNC(C)=N)NCc1ccc(-n2cc3cc(-c4cc(CCC[C@H](C)N)cc(Cl)c4F)[nH]c3nc2=O)cc1` [Compound 14], the MIC in assay [1] and in assay [2] was at most 16 µg/mL each time.
For `CC(=N)NCC[C@@H]1CSC[C@@H](c2ccc(-n3cc4cc(-c5cc(CCC[C@@H](N)C6CC6)cc(Cl)c5F)[nH]c4nc3=O)cc2)N1` [Compound 269], the MIC in assay [1] and in assay [2] was at most 16 µg/mL each time.
Turning to `CC(=N)NCC[C@H](CO)N[C@@H](C)c1ccc(-n2cc3cc(-c4cc(CCC[C@@H](N)CF)cc(Cl)c4F)[nH]c3nc2=O)cc1F` [Compound 178], the MIC in assay [1] and in assay [2] was at most 16 µg/mL each time.
Take `CC(=N)NCC[C@@H]1CCC[C@@H](c2ccc(-n3cc4cc(-c5cc(CCC[C@H](C)NC(C)=N)cc(Cl)c5F)[nH]c4nc3=O)cc2)N1` [Compound 29]: the MIC in assay [1] and in assay [2] was at most 16 µg/mL in each case.
For the compound `C[C@H](N)CCCc1cc(Cl)c(F)c(-c2cc3cn(-c4ccc(CN[C@H](CCNC(=N)CF)CNc5ncc[nH]5)cc4)c(=O)nc3[nH]2)c1` [Compound 21], the MIC in assay [1] and in assay [2] was at most 16 µg/mL each time.
Take `C=C[C@H](N)CCCc1cc(Cl)c(F)c(-c2cc3cn(-c4ccc(CN[C@@H](C=C)CCNC(C)=N)cc4)c(=O)nc3[nH]2)c1` [Compound 101]: the MIC in assay [1] and in assay [2] was at most 16 µg/mL in each case.
As to `CC(=N)NCC[C@@H]1CCC[C@@H](c2ccc(-n3cc4cc(-c5cc(CCC[C@H](C)N)cc(Cl)c5F)[nH]c4nc3=O)cc2)N1C[C@H](C)CO` [Compound 366], the MIC in assay [1] and in assay [2] was at most 16 µg/mL each time.
Turning to `CC(=N)NCC[C@@H](NCc1ccc(-n2cc3cc(-c4cc(CCC[C@@H](N)CF)cc(C(F)(F)F)c4F)[nH]c3nc2=O)cc1)C1CC1` [Compound 230], the minimal inhibitory concentration (MIC) in assay [1] and in assay [2] was at most 16 µg/mL throughout.
As for `CC(=N)NCC[C@@H]1CCC[C@@H](c2ccc(-n3cc4cc(-c5cc(CCC[C@H](C)N)cc(C(F)(F)F)c5)[nH]c4nc3=O)cc2)N1CCCF` [Compound 293], the MIC in assay [1] and in assay [2] was at most 16 µg/mL each time.
`CSc1cc(-n2cc3cc(-c4cc(CCC[C@@H]5COCCN5)cc(Cl)c4F)[nH]c3nc2=O)ccc1[C@@H]1CCC[C@@H](CCNC(C)=N)N1` [Compound 260]: the MIC in assay [1] and in assay [2] was at most 16 µg/mL throughout.
Consider `C=C[C@@H](N)CCCc1cc(Cl)c(F)c(-c2cc3cn(-c4ccc([C@H](C)N[C@@H](C=C)CCNC(C)=N)cc4)c(=O)nc3[nH]2)c1` [Compound 149], for which the MIC in assay [1] and in assay [2] was at most 16 µg/mL throughout.
Regarding `CC(=N)NCC[C@@H]1CCC[C@@H](c2ccc(-n3cc4cc(-c5cc(CCC[C@H](C)N)cc(Cl)c5F)[nH]c4nc3=O)cc2)N1C` [Compound 109], the MIC in assay [1] and in assay [2] was at most 16 µg/mL throughout.
For `CC(=N)NCC[C@H]1CNC[C@@H](c2ccc(-n3cc4cc(-c5cc(CCC[C@H](C)N)cc(Cl)c5F)[nH]c4nc3=O)cc2)N1` [Compound 48], the minimum inhibitory concentration (MIC) in assay [1] and in assay [2] was at most 16 µg/mL in each case.
Take `CC(=N)NCC[C@@H]1CCC[C@@H](c2ccc(-n3cc4cc(-c5cc(CCC[C@@H](N)CS(C)(=O)=O)cc(Cl)c5F)[nH]c4nc3=O)cc2)N1` [Compound 284]: the MIC in assay [1] and in assay [2] was at most 16 µg/mL each time.
`CC(=N)NCC[C@@H]1CCC[C@@H](c2ccc(-n3cc4cc(-c5cc(CCC[C@@H](N)CF)cc(Cl)c5F)[nH]c4nc3=O)cc2)N1C` [Compound 137]: the MIC in assay [1] and in assay [2] was at most 16 µg/mL each time.
On to `CC(=N)NCC[C@@H]1CCC[C@@H](c2ccc(-n3cc4cc(-c5cc(CCC[C@@H](N)C(F)F)cc(Cl)c5F)[nH]c4nc3=O)cc2)N1` [Compound 139], for which the MIC in assay [1] and in assay [2] was at most 16 µg/mL throughout.
Consider `COC[C@H](N)CCCc1cc(OC(F)(F)F)c(F)c(-c2cc3cn(-c4ccc(CN[C@H](CCNC(C)=N)C5CC5)cc4)c(=O)nc3[nH]2)c1` [Compound 223], for which the MIC in assay [1] and in assay [2] was at most 16 µg/mL throughout.
With `N=C(CF)NCC[C@@H]1CCC[C@@H](c2ccc(-n3cc4cc(-c5cc(CCC[C@@H](N)C(F)(F)F)cc(Cl)c5F)[nH]c4nc3=O)cc2)N1` [Compound 64], the MIC in assay [1] and in assay [2] was at most 16 µg/mL in each case.
For `COCCOCC(=N)NCC[C@@H]1CCC[C@@H](c2ccc(-n3cc4cc(-c5cc(CCC[C@H](C)N)cc(Cl)c5F)[nH]c4nc3=O)cc2)N1` [Compound 362], the MIC in assay [1] and in assay [2] was at most 16 µg/mL each time.
With `CC(=N)NCCCNC1(c2ccc(-n3cc4cc(-c5cc(CCC[C@@H](N)C6CC6)cc(Cl)c5F)[nH]c4nc3=O)cc2)CC1` [Compound 143], the MIC in assay [1] and in assay [2] was at most 16 µg/mL in each case.
With `CC(=N)NCC[C@@H]1CCC[C@@H](c2ccc(-n3cc4cc(-c5cc(CCC[C@@H](N)CF)cc(C(F)(F)F)c5)[nH]c4nc3=O)cc2)N1` [Compound 204], the MIC in assay [1] and in assay [2] was at most 16 µg/mL each time.
Regarding `C=C[C@H](N)CCCc1cc(-c2cc3cn(-c4cc(F)c([C@@H]5CCC[C@@H](CCNC(C)=N)N5CCCF)c(SC)c4)c(=O)nc3[nH]2)cc(C(F)(F)F)c1` [Compound 351], the minimal inhibitory concentration (MIC) in assay [1] and in assay [2] was at most 16 µg/mL each time.
Regarding `CC(=N)NCC[C@H](CO)NCc1ccc(-n2cc3cc(-c4cc(CCC[C@@H](N)CF)cc(Cl)c4F)[nH]c3nc2=O)cc1` [Compound 100], the MIC in assay [1] and in assay [2] was at most 16 µg/mL each time.
Regarding `C=C[C@H](N)CCCc1cc(Cl)c(F)c(-c2cc3cn(-c4ccc([C@H](C)N[C@@H](C=C)CCNC(C)=N)c(F)c4)c(=O)nc3[nH]2)c1` [Compound 184], the minimal inhibitory concentration (MIC) in assay [1] and in assay [2] was at most 16 µg/mL each time.
With `C[C@H](N)CCCc1cc(Cl)c(F)c(-c2cc3cn(-c4ccc([C@@H]5CNC[C@H](CCNC(=N)CF)N5)cc4)c(=O)nc3[nH]2)c1` [Compound 49], the MIC in assay [1] and in assay [2] was at most 16 µg/mL throughout.
For the compound `CC(=N)NCCCN[C@@H](C)c1ccc(-n2cc3cc(-c4cc(CCC[C@H](C)N)cc(Cl)c4F)[nH]c3nc2=O)cc1F` [Compound 93], the MIC in assay [1] and in assay [2] was at most 16 µg/mL in each case.
Regarding `C=C[C@@H](N)CCCc1cc(Cl)c(F)c(-c2cc3cn(-c4ccc([C@@H]5COC[C@@H](CCNC(=N)CF)N5)cc4)c(=O)nc3[nH]2)c1` [Compound 57], the MIC in assay [1] and in assay [2] was at most 16 µg/mL throughout.
Turning to `CC(=N)NCC[C@@H]1CCC[C@@H](c2ccc(-n3cc4cc(-c5cc(CCC[C@@H](N)C6CC6)cc(C(F)(F)F)c5)[nH]c4nc3=O)cc2OC(F)(F)F)N1` [Compound 217], the MIC in assay [1] and in assay [2] was at most 16 µg/mL in each case.
As for `CC(=N)NCC[C@@H]1CCC[C@@H](c2ccc(-n3cc4cc(-c5cc(CCC[C@@H](N)C(F)(F)F)cc(Cl)c5F)[nH]c4nc3=O)cc2)N1` [Compound 63], the MIC in assay [1] and in assay [2] was at most 16 µg/mL throughout.
With `CC(=N)NCC[C@@H]1CCC[C@@H](c2ccc(-n3cc4cc(-c5cc(CCC[C@@H](N)C6CC6)cc(Cl)c5F)[nH]c4nc3=O)cn2)N1` [Compound 248], the MIC in assay [1] and in assay [2] was at most 16 µg/mL each time.
For the compound `C[C@H](N)CCCc1cc(Cl)c(F)c(-c2cc3cn(-c4ccc([C@@H]5CNC[C@H](CCNC(=N)CF)O5)cc4)c(=O)nc3[nH]2)c1` [Compound 28], the MIC in assay [1] and in assay [2] was at most 16 µg/mL in each case.
For the compound `C=C[C@@H](CCNC(C)=N)NCc1ccc(-n2cc3cc(-c4cc(CCC[C@@H](N)CF)cc(Cl)c4F)[nH]c3nc2=O)cc1` [Compound 103], the MIC in assay [1] and in assay [2] was at most 16 µg/mL in each case.
Regarding `C=C[C@@H](CCNC(C)=N)NCc1ccc(-n2cc3cc(-c4cc(CCC[C@@H](N)C(F)F)cc(Cl)c4F)[nH]c3nc2=O)cc1` [Compound 140], the minimal inhibitory concentration (MIC) in assay [1] and in assay [2] was at most 16 µg/mL throughout.
In the case of `CC(=N)NCC[C@H](CO)NCc1ccc(-n2cc3cc(-c4cc(CCC[C@H](C)N)cc(Cl)c4F)[nH]c3nc2=O)cc1` [Compound 18], the minimum inhibitory concentration (MIC) in assay [1] and in assay [2] was at most 16 µg/mL each time.
For the compound `C=CC(CCNC(=N)COC)NCc1ccc(-n2cc3cc(-c4cc(CCC[C@H](C)N)cc(Cl)c4F)[nH]c3nc2=O)cc1` (stereo partly drawn) [Compound 34], the MIC in assay [1] and in assay [2] was at most 16 µg/mL each time.
For the compound `C=C[C@@H](CCNC(C)=N)NCc1ccc(-n2cc3cc(-c4cc(CCC[C@@H](N)CC#N)cc(Cl)c4F)[nH]c3nc2=O)cc1` [Compound 155], the minimum inhibitory concentration (MIC) in assay [1] and in assay [2] was at most 16 µg/mL in each case.
As for `CC(=N)NCC[C@@H]1CCC[C@@H](c2ccc(-n3cc4cc(-c5cc(Cl)cc(CCC[C@H](C)N)c5)[nH]c4nc3=O)cc2)N1` [Compound 370], the MIC in assay [1] and in assay [2] was at most 16 µg/mL in each case.
Turning to `COc1cc(-n2cc3cc(-c4cc(CCC[C@H](C)N)cc(Cl)c4F)[nH]c3nc2=O)cc(F)c1[C@@H]1CCC[C@@H](CCNC(C)=N)N1` [Compound 319], the MIC in assay [1] and in assay [2] was at most 16 µg/mL throughout.
